Experimental data as given in patent US10239887B2, “Positive allosteric modulators of the muscarinic acetylcholine receptor M4” (Vanderbilt University, priority 2016, dated 2019).
Counter-ions that a name gives are not always drawn. Like-named read-outs stand apart in the source and are kept apart here.

Molecular target: T1, human mAChR M4 (Homo sapiens, UniProt P08173)
T1 sequence (P08173 1-479): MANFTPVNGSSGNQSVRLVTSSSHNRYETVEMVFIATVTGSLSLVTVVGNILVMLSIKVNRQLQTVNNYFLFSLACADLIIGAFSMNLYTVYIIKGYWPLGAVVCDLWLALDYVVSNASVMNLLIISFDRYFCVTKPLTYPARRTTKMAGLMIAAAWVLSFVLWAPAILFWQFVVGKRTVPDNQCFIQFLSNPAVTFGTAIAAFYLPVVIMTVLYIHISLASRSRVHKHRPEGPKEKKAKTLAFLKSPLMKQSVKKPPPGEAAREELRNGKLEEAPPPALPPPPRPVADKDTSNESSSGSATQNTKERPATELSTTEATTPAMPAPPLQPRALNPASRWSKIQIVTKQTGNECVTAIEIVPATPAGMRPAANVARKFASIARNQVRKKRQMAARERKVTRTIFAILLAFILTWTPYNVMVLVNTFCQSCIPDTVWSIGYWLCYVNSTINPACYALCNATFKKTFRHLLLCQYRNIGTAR
Assay: mAChR M4 cell-based functional assay (calcium flux), human M4
Conditions: for EC50: Human M4 EC50 (nM), calcium flux, PAM activity with EC20 acetylcholine

[1] = Table 11, % ACh maximum at 30 μM
[2] = Table 10, % ACh maximum at 30 μM

| SMILES | EC50 (Table 10) [nM] | Emax [2] [%] | other results |
| --- | --- | --- | --- |
| Cc1cc(C)c2c(n1)oc1c(NC3CC3)ncnc12 [Compound 62, N-cyclopropyl-7,9-dimethyl-pyrido[3′,2′:4,5]furo[3,2-d]pyrimidin-4-amine hydrochloride] |  |  | Emax: 63.9% |
| Cc1nnc2sc3c(N4CC(Oc5cccnc5)C4)ncnc3c2c1C [Compound 356, 3,4-dimethyl-8-[3-(3-pyridyloxy)azetidin-1-yl]pyrimido[4′,5′:4,5]thieno [2,3-c]pyridazine dihydrochloride] |  |  | EC50 (Table 11): 1170 nM; Emax [1]: 32.8% |
| COc1ccc(CNc2ncnc3c2oc2nnc(C)c(C)c23)cc1F [Compound 75, N-[(3-fluoro-4-methoxy-phenyl)methyl]-3,4-dimethyl-pyrimido[4′,5′:4,5]furo[2,3-c]pyridazin-8-amine] |  |  | Emax (Human M4, % ACh maximum at 30 μM): 36.4% |
| Cc1cc(O[C@@H]2CCN(c3ncnc4c3sc3nnc(C)c(C)c34)C2)ccn1 [Compound 338, 3,4-dimethyl-8-[(3R)-3-[(2-methyl-4-pyridyl)oxy]pyrrolidin-1-yl] pyrimido[4′,5′:4,5] thieno[2,3-c]pyridazine] |  |  | EC50 (Table 11): 73.4 nM; Emax [1]: 74.6% |
| Cc1cc(C)c(CNc2ncnc3c2sc2nnc(C)c(C)c23)cn1 [Compound 147, N-[(4,6-dimethyl-3-pyridyl)methyl]-3,4-dimethyl-pyrimido [4′,5′:4,5]thieno[2,3-c] pyridazin-8-amine hydrochloride] | 429 |  | Emax: 85.8% |
| Cc1nc2oc3c(NC4CC4c4ccc(F)c(F)c4)ncnc3c2c(C)c1Cl (stereo not drawn) [Compound 247, 8-chloro-N-[2-(3,4-difluorophenyl)cyclopropyl]-7,9-dimethyl-pyrido [3′,2′:4,5]furo[3,2-d] pyrimidin-4-amine hydrochloride] | 7840 | 70 |  |
| Cc1cc(CNc2ncnc3c2sc2nnc(C)c(C)c23)cnc1C [Compound 148, N-[(5,6-dimethyl-3-pyridyl)methyl]-3,4-dimethyl-pyrimido [4′,5′:4,5]thieno[2,3-c] pyridazin-8-amine hydrochloride] | 522 |  | Emax: 84% |
| Cc1nnc2sc3c(NC45CC(F)(C4)C5)ncnc3c2c1C [Compound 139, N-(3-fluoro-1-bicyclo [1.1.1]pentanyl)-3,4-dimethyl-pyrimido [4′,5′:4,5]thieno[2,3-c]pyridazin-8-amine] | 422 | 67.6 |  |

Second part, led by results:

| EC50 (Table 10) [nM] | Emax [2] [%] | SMILES | other results |
| --- | --- | --- | --- |
| 109 | 87.2 | Cc1nnc2sc3c(NCc4ccc(C(=O)NC5CC6(COC6)C5)cc4)ncnc3c2c1C [Compound 154, 4-[[(3,4-dimethylpyrimido [4′,5′:4,5]thieno[2,3-c]pyridazin-8-yl)amino]methyl]-N-(2-oxaspiro [3.3]heptan-6-yl)benzamide] |  |
| 1130 | 51.7 | Cc1nnc2sc3c(N4CC(NC(=O)c5ccncc5)C4)ncnc3c2c1C [Compound 97, N-[1-(3,4-dimethylpyrimido [4′,5′:4,5]thieno[2,3-c]pyridazin-8-yl)azetidin-3-yl]pyridine-4-carboxamide hydrochloride] |  |
| 101 | 82.1 | CNC(=O)c1ccc(CNc2ncnc3c2sc2nnc(C)c(C)c23)cc1 [Compound 145, 4-[[(3,4-dimethylpyrimido [4′,5′:4,5]thieno[2,3-c]pyridazin-8-yl)amino]methyl]-N-methyl-benzamide] |  |
| 1030 | 97.1 | Cc1nnc2sc3c(NCc4ccc(F)c(C(=O)NC5CCCC5)c4)ncnc3c2c1C [Compound 178, N-cyclopentyl-5-[[(3,4-dimethylpyrimido [4′,5′:4,5]thieno[2,3-c]pyridazin-8-yl)amino]methyl]-2-fluoro-benzamide] |  |
| 748 | 95.2 | Cc1nnc2sc3c(NCc4ccc(F)c(C(=O)NC(C)C)c4)ncnc3c2c1C [Compound 179, 5-[[(3,4-dimethylpyrimido [4′,5′:4,5]thieno[2,3-c]pyridazin-8-yl)amino]methyl]-2-fluoro-N-isopropyl-benzamide] |  |
